What is called pKb is the Kb on a negative log10 scale, so that one unit is a factor of ten.

This is an account of results in ChEMBL document CHEMBL4619778, “Oligopeptides as Neuropeptide Y Y4 Receptor Ligands: Identification of a High-Affinity Tetrapeptide Agonist and a Hexapeptide Antagonist” (J Med Chem, 2020).

Square brackets hold non-standard residues; d marks the D form. Peptide text beside a SMILES is read from it. ξ: configuration not given here. ξOrn = NCCCC(N)C(=O)O Bounds are passed on as bounds.

Assay [1] deals with T1, Neuropeptide Y receptor type 4 (Homo sapiens, UniProt P50391). The assay is described as follows: Displacement of [3H]UR-KK200 from human Y4 receptor expressed in CHO cells co-expressing Gqi5-mtAEQ measured after 90 mins by scintillation counting analysis. In kind it is cell-based.
Assay [2] has as its target T1, Neuropeptide Y receptor type 4. The assay is described as follows: Antagonist activity at human Y4R expressed in HEK293T cells co-expressing ARRB1 assessed as inhibition of hPP-induced beta-arrestin1 recruitment preincubated for 20 mins followed by hPP addition and measured for 40 mins by D-luciferin based luminescence assay. The class given is cell-based. The following applies: HEK-293T. Background: Recruitment of arrestin is a read-out of receptor activation apart from second messengers.

For assay [3] the target is unchanged. Nature of the assay: Antagonist activity at human Y4R expressed in HEK293T cells co-expressing ARRB2 assessed as inhibition of hPP-induced beta-arrestin2 recruitment preincubated for 20 mins followed by hPP addition and measured for 40 mins by D-luciferin based luminescence assay. The class given is cell-based. Conditions: HEK-293T.
Assay [4] shares this target. The assay is described as follows: Antagonist activity at human Y4 receptor expressed in CHO cells co-expressing Gqi5-mtAEQ assessed as inhibition of hPP-induced intracellular calcium mobilization preincubated for 15 mins followed by hPP addition and measured for 43 secs in presence of coelenterazine by aequorin-reporter gene based luminescence assay. In kind it is functional, cell-based.

Assay [5] deals with T2, Neuropeptide Y receptor type 1 (Homo sapiens, UniProt P25929).
T2 sequence (P25929 whole entry): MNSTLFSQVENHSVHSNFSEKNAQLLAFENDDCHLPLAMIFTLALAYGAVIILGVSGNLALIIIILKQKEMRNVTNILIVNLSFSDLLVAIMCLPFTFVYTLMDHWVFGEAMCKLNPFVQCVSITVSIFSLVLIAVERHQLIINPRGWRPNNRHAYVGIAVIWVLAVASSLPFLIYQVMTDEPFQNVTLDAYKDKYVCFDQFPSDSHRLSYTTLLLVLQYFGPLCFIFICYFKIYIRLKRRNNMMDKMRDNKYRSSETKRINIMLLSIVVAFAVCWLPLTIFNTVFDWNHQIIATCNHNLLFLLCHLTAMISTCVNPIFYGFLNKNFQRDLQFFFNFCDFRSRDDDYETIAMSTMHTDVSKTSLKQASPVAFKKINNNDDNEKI
The assay is described as follows: Displacement of [3H]UR-MK299 from Y1 receptor in human SK-N-MC cells. In kind it is cell-based.

Assay [6] deals with T3, Neuropeptide Y receptor type 2 (Homo sapiens, UniProt P49146).
T3 sequence (P49146 whole entry): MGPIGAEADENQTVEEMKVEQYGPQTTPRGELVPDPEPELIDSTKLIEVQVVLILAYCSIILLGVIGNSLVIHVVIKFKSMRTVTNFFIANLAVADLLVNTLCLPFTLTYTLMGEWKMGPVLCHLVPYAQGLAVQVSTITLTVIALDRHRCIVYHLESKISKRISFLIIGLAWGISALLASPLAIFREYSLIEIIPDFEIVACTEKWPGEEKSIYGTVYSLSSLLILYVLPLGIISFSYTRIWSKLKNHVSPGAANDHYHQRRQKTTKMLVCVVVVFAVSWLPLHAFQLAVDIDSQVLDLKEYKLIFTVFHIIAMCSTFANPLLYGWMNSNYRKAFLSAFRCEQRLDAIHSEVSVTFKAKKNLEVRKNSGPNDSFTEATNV
The assay is described as follows: Displacement of [3H]propionyl-pNPY from human Y2 receptor expressed in CHO cells measured after 2 hrs by microbeta liquid scintillation counting analysis. In kind it is cell-based.

Assay [7] concerns the target T4, Neuropeptide Y receptor type 5 (Homo sapiens, UniProt Q15761).
T4 sequence (Q15761 whole entry): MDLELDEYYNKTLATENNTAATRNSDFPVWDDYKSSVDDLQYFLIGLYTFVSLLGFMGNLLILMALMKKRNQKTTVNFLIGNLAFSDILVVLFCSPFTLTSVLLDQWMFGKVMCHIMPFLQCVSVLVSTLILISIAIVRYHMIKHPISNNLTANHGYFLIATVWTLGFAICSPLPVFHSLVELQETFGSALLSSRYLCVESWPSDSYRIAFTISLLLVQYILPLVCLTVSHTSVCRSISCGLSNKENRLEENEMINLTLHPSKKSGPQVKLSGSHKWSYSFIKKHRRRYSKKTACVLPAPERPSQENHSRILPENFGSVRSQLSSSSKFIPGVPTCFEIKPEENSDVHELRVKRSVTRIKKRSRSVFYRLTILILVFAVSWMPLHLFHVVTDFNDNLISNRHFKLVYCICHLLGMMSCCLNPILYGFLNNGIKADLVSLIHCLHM
The assay is described as follows: Displacement of [3H]propionyl-pNPY from human Y5 receptor expressed in human HEC1B cells. In kind it is cell-based. Background: Displacement assays read how much labelled ligand stays bound in the presence of the test substance.

Assay [8] is filed under the species Homo sapiens. Nature of the assay: Selectivity ratio of Ki for displacement of [3H]UR-MK299 from Y1 receptor in human SK-N-MC cells to Ki for displacement of [3H]UR-KK200 from human Y4 receptor expressed in CHO cells co-expressing Gqi5-mtAEQ. In kind it is cell-based.
Assay [9] is filed under the species Homo sapiens. The assay is described as follows: Selectivity ratio of Ki for displacement of [3H]propionyl-pNPY from human Y2 receptor expressed in CHO cells to Ki for displacement of [3H]UR-KK200 from human Y4 receptor expressed in CHO cells co-expressing Gqi5-mtAEQ. The class given is cell-based.
The species named for assay [10] is Homo sapiens. The assay is described as follows: Selectivity ratio of Ki for displacement of [3H]propionyl-pNPY from human Y5 receptor expressed in human HEC1B cells to Ki for displacement of [3H]UR-KK200 from human Y4 receptor expressed in CHO cells co-expressing Gqi5-mtAEQ. In kind it is cell-based.
Assay [11] deals with T1, Neuropeptide Y receptor type 4. The assay is described as follows: Antagonist activity at human Y4R expressed in HEK293T cells co-expressing ARRB1 assessed as inhibition of hPP-induced beta-arrestin1 recruitment at 10 uM preincubated for 20 mins followed by hPP addition and measured for 40 mins by D-luciferin based luminescence assay. In kind it is cell-based. Conditions: HEK-293T.

Assay [12] has the same target. Nature of the assay: Antagonist activity at human Y4 receptor expressed in CHO cells co-expressing Gqi5-mtAEQ assessed as inhibition of hPP-induced intracellular calcium mobilization at 10 uM preincubated for 15 mins followed by hPP addition and measured for 43 secs in presence of coelenterazine by aequorin-reporter gene based luminescence assay. The class given is functional, cell-based. (In general: Calcium flux is commonly read through the fluorescence of an indicator in the cells.)

For assay [13] the target is unchanged. The assay is described as follows: Antagonist activity at human Y4R expressed in HEK293T cells co-expressing ARRB1 assessed as inhibition of hPP-induced beta-arrestin1 recruitment by measuring rightward shifts of hPP concentration-response curves at 10 uM preincubated for 20 mins followed by hPP addition and measured for 40 mins by D-luciferin based luminescence assay relative to hPP. The class given is cell-based. Conditions: HEK-293T.

The target is the same in assay [14]. Nature of the assay: Antagonist activity at human Y4 receptor expressed in CHO cells co-expressing Gqi5-mtAEQ assessed as inhibition of hPP-induced intracellular calcium mobilization by measuring rightward shifts of hPP concentration-response curves at 10 uM preincubated for 15 mins followed by hPP addition and …. In kind it is functional, cell-based.

T1 sequence (P50391 whole entry): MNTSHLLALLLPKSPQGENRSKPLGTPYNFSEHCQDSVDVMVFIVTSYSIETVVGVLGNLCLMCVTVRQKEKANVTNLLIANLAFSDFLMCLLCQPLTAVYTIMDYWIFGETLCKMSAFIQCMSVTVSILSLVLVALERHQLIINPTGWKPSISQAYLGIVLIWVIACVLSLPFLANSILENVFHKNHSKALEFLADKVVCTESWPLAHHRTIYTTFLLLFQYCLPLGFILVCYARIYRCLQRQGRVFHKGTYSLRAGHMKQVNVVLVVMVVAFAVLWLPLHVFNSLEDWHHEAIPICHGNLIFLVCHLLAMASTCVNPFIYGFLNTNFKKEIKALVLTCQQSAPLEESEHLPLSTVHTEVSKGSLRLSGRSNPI

Turning to `CC(=O)N[C@@H](CCCNC(=N)N)C(=O)NC(CCCN)C(=O)N[C@@H](Cc1ccc(O)cc1)C(=O)N[C@@H](CCCNC(=N)N)C(=O)N[C@@H](Cc1c[nH]c2ccccc12)C(=O)N[C@@H](CCCNC(=N)N)C(=O)N[C@@H](Cc1ccc(O)cc1)C(N)=O` (stereo not given in full) (Ac-R[ξOrn]YRWRY-NH2), the Ki in [1] (read-out: Ki) was determined as 160 nM. The pKb in assay [2] is 6.22; in assay [3], 5.87; in assay [4] it was 6.91.

Consider Ac-RGYRWRW-NH2, for which the Ki in assay [1] (read-out: Ki) was 250 nM; in [1] (read-out: pKi (converted)), 240 nM. Further, the results for the pKb in assay [2], in [3] and in [4] were 6.1, 5.8 and 6.46, respectively.

Turning to Ac-RGYRWRY-NH2, the Ki is 29 nM in [1] (read-out: Ki); above 3000 nM in [5] (read-out: Ki); above 3160 nM in assay [5] (read-out: pKi (converted)); above 10000 nM in assay [6] (cho, read-out: Ki); above 10000 nM in assay [6] (read-out: pKi (converted)); above 3000 nM in [7] (read-out: Ki). Further, the Ki in assay [7] (read-out: pKi (converted)) is above 3160 nM. Also, the Ratio Ki in assay [8] is above 100; in [9], above 340; in [10], above 100. For the same compound, the pKb worked out at 6.96 in assay [2], 7.01 in assay [3] and 7.57 in assay [4].

Regarding Ac-RYRWRY-NH2, the values for the Ki in assay [1] (read-out: Ki) and in assay [1] (read-out: pKi (converted)) were 97 nM and 89.1 nM, respectively. Further, the results for the pKb in assay [2], in assay [3] and in [4] were 7.02, 6.85 and 7.22, respectively.

As to H-RYRWRY-NH2, the Ki in assay [1] (read-out: Ki) is 28 nM; in [1] (read-out: pKi (converted)), 26.9 nM; in assay [5] (read-out: Ki), above 3000 nM; in [5] (read-out: pKi (converted)) it was above 3160 nM; in assay [6] (read-out: Ki), above 3000 nM; in assay [6] (read-out: pKi (converted)) it was above 3160 nM. Besides, the Ki in assay [7] (read-out: Ki) and in [7] (read-out: pKi (converted)) was above 10000 nM in each case. Also, the figures for the Ratio Ki in [8], in [9] and in assay [10] were above 110, above 110 and above 360, respectively. In addition, the negative-log Kb (pKb) worked out at 7.14 in [2]; 6.87 in assay [3]; 7.32 in [4]; 6.63 in [11]; 7.05 in [12]. Besides, the fold change (FC) in assay [13] and in [14] was 2 each time.
